ChEMBL document CHEMBL1135808, “A new type of mixed anhydride and its applications to the synthesis of 7-substituted 8-chloro-5,5-dioxoimidazo[1,2-b][1,4,2]benzodithiazines with in vitro antitumor activity” (2002)

Legend:
A549 [1] = experiment: In vitro total growth inhibition against non-small-cell lung cancer A 549/ATCC cell lines was reported.; type: functional; conditions: Homo sapiens, read-out: Log TGI (converted)
HCC 2998 [2] = experiment: In vitro growth inhibition against colon cancer HCC2998 cell line was reported.; type: functional; conditions: Homo sapiens
SK-MEL-28 = experiment: In vitro growth inhibition against melanoma SK-MEL-28 cell line was reported.; type: functional; conditions: Homo sapiens
UO-31 = experiment: Log of molar concentration leading to 50% cell death against renal cancer UO-31 cell line was reported; type: functional; conditions: Homo sapiens, read-out: Log LC50 (the source's name) (converted)
NCI-H23 = experiment: Log of molar concentration leading to 50% cell death against non-small-cell lung cancer NCI-H23 cell line was reported; type: functional; conditions: Homo sapiens, read-out: Log LC50 (the source's name) (converted)
OVCAR-3 [3] = experiment: Log of molar concentration leading to 50% cell death against ovarian cancer OVCAR-3 cell line was reported; type: functional; conditions: Homo sapiens, read-out: Log LC50 (the source's name) (converted)
HCT-15 [4] = experiment: Log of molar concentration leading to 50% cell death against colon cancer HCT-15 cell line was reported; type: functional; conditions: Homo sapiens, read-out: Log LC50 (the source's name) (converted)
BT-549 = experiment: Log of molar concentration leading to 50% cell death against breast cancer BT 549 cell line was reported; type: functional; conditions: Homo sapiens, read-out: Log LC50 (the source's name) (converted)
MDA-MB-231 = experiment: In vitro total growth inhibition against breast cancer MDA-MB-231/ATCC cell lines was reported.; type: functional; conditions: Homo sapiens, read-out: Log TGI (converted)
OVCAR-5 = experiment: Log of molar concentration leading to 50% cell death against ovarian cancer […] cell line was reported; type: functional; conditions: Homo sapiens, read-out: Log LC50 (the source's name) (converted)
A498 = experiment: Log of molar concentration leading to 50% cell death against renal cancer A498 cell line was reported; type: functional; conditions: Homo sapiens, read-out: Log LC50 (the source's name) (converted)
SK-MEL-5 = experiment: In vitro growth inhibition against melanoma SK-MEL-5 cell line was reported.; type: functional; conditions: Homo sapiens
MOLT-4 = experiment: Log of molar concentration leading to 50% cell death against leukemia MOLT-4 cell line was reported; type: functional; conditions: Homo sapiens, read-out: Log LC50 (the source's name) (converted)
SK-OV-3 [5] = experiment: In vitro total growth inhibition against ovarian cancer SK-OV-3 cell lines was reported.; type: functional; conditions: Homo sapiens, read-out: Log TGI (converted)
HOP-92 [6] = experiment: In vitro total growth inhibition against non-small-cell lung cancer HOP-92 cell lines was reported.; conditions: Homo sapiens, read-out: Log TGI (converted)
Malme-3M [7] = experiment: Log of molar concentration leading to 50% cell death against melanoma MALME 3M cell line was reported; type: functional; conditions: Homo sapiens, read-out: Log LC50 (the source's name) (converted)
NCI-H46 = experiment: In vitro total growth inhibition against non-small-cell lung cancer […] cell lines was reported.; type: functional; conditions: Homo sapiens, read-out: Log TGI (converted)
HCC 2998 [8] = experiment: Log of molar concentration leading to 50% cell death against colon cancer HCC2998 cell line was reported; type: functional; conditions: Homo sapiens, read-out: Log LC50 (the source's name) (converted)
EKVX [9] = experiment: In vitro growth inhibition against non-small-cell lung cancer EKVX cell line was reported.; type: functional; conditions: Homo sapiens
MDA-N = experiment: Log of molar concentration leading to 50% cell death against breast cancer MDA-Ncell line was reported; type: functional; conditions: Homo sapiens, read-out: Log LC50 (the source's name) (converted)
HCT-15 [10] = experiment: In vitro growth inhibition against colon cancer […] cell line was reported.; type: functional; conditions: Homo sapiens
OVCAR-3 [11] = experiment: In vitro total growth inhibition against ovarian cancer OVCAR-3 cell lines was reported.; type: functional; conditions: Homo sapiens, read-out: Log TGI (converted)
CCRF-CEM = experiment: Log of molar concentration leading to 50% cell death against leukemia CCRF-CEM cell line was reported; type: functional; conditions: Homo sapiens, read-out: Log LC50 (the source's name) (converted)
Tumor Cell line = experiment: Log of molar concentration leading to 50% cell death was reported; type: functional; conditions: Homo sapiens, read-out: Log LC50 (the source's name) (converted)
LOX IMVI [12] = experiment: Log of molar concentration leading to 50% cell death against melanoma LOX IMVI cell line was reported; type: functional; conditions: Homo sapiens, read-out: Log LC50 (the source's name) (converted)
SN12C [13] = experiment: In vitro total growth inhibition against renal cancer SN12C cell lines was reported.; type: functional; conditions: Homo sapiens, read-out: Log TGI (converted)
Homo sapiens = organism: Homo sapiens; experiment: In vitro total growth inhibition against non-small-cell lung cancer EKVX cell lines was reported.; type: functional; conditions: read-out: Log TGI (converted)
PC-3 = experiment: In vitro total growth inhibition against prostate cancer PC-3 cell lines was reported.; type: functional; conditions: Homo sapiens, read-out: Log TGI (converted)
SNB-75 = experiment: Log of molar concentration leading to 50% cell death against CNS cancer SNB-75 cell line was reported; type: functional; conditions: Homo sapiens, read-out: Log LC50 (the source's name) (converted)
NCI-H226 = experiment: Log of molar concentration leading to 50% cell death against non-small-cell lung cancer NCI-H226 cell line was reported; type: functional; conditions: Homo sapiens, read-out: Log LC50 (the source's name) (converted)
SF-268 = experiment: In vitro total growth inhibition against CNS cancer SF-268 cell lines was reported.; type: functional; conditions: Homo sapiens, read-out: Log TGI (converted)
Hs-578T = experiment: In vitro total growth inhibition against breast cancer HS 578T cell lines was reported.; type: functional; conditions: Homo sapiens, read-out: Log TGI (converted)
SK-MEL-2 = experiment: In vitro total growth inhibition against melanoma SK-MEL-2 cell lines was reported.; type: functional; conditions: Homo sapiens, read-out: Log TGI (converted)
SR [14] = experiment: In vitro total growth inhibition against leukemia SR cell lines was reported.; type: functional; conditions: Homo sapiens, read-out: Log TGI (converted)
EKVX [15] = experiment: Log of molar concentration leading to 50% cell death against non-small-cell lung cancer EKVX cell line was reported; type: functional; conditions: Homo sapiens, read-out: Log LC50 (the source's name) (converted)
MDA-MB-435 = experiment: In vitro growth inhibition against breast cancer MDA-MB-435 cell line was reported.; conditions: Homo sapiens
Malme-3M [16] = experiment: In vitro total growth inhibition against melanoma MALME 3M cell lines was reported.; type: functional; conditions: Homo sapiens, read-out: Log TGI (converted)
LOX IMVI [17] = experiment: In vitro total growth inhibition against melanoma LOX IMVI cell lines was reported.; type: functional; conditions: Homo sapiens, read-out: Log TGI (converted)
SNB-19 [18] = experiment: Log of molar concentration leading to 50% cell death against CNS cancer SNB-19 cell line was reported; type: functional; conditions: Homo sapiens, read-out: Log LC50 (the source's name) (converted)
HOP-62 = experiment: In vitro growth inhibition against non-small-cell lung cancer HOP-62 cell line was reported.; type: functional; conditions: Homo sapiens
HOP-92 [19] = experiment: In vitro growth inhibition against non-small-cell lung cancer HOP-92 cell line was reported.; type: functional; conditions: Homo sapiens
IGROV-1 = experiment: In vitro total growth inhibition against ovarian cancer IGROV1 cell lines was reported.; type: functional; conditions: Homo sapiens, read-out: Log TGI (converted)
SN12C [20] = experiment: Log of molar concentration leading to 50% cell death against renal cancer SN12C cell line was reported; type: functional; conditions: Homo sapiens, read-out: Log LC50 (the source's name) (converted)
SR [21] = experiment: Log of molar concentration leading to 50% cell death against leukemia SR cell line was reported; type: functional; conditions: Homo sapiens, read-out: Log LC50 (the source's name) (converted)
COLO 205 = experiment: In vitro growth inhibition against colon cancer COLO 205 cell line was reported.; type: functional; conditions: Homo sapiens
SK-OV-3 [22] = experiment: In vitro growth inhibition against ovarian cancer SK-OV-3 cell line was reported.; type: functional; conditions: Homo sapiens
SNB-19 [23] = experiment: In vitro total growth inhibition against CNS cancer SNB-19 cell lines was reported.; type: functional; conditions: Homo sapiens, read-out: Log TGI (converted)
786-0 = experiment: Log of molar concentration leading to 50% cell death against renal cancer […] cell line was reported; type: functional; conditions: Homo sapiens, read-out: Log LC50 (the source's name) (converted)
SW-620 [24] = experiment: In vitro total growth inhibition against colon cancer SW-620 cell lines was reported.; type: functional; conditions: Homo sapiens, read-out: Log TGI (converted)
SW-620 [25] = experiment: Log of molar concentration leading to 50% cell death against colon cancer SW620 cell line was reported; type: functional; conditions: Homo sapiens, read-out: Log LC50 (the source's name) (converted)
A549 [26] = experiment: Log of molar concentration leading to 50% cell death against non-small-cell lung cancer A 549/ATCC cell line was reported; type: functional; conditions: Homo sapiens, read-out: Log LC50 (the source's name) (converted)
T47D = experiment: Log of molar concentration leading to 50% cell death against breast cancer […] cell line was reported; type: functional; conditions: Homo sapiens, read-out: Log LC50 (the source's name) (converted)

O=C(Nc1nccs1)c1cc2c(cc1Cl)Sc1nccn1S2(=O)=O
TGI (A549 [1]): 63.1 µM
GI50 (HCC 2998 [2]): 15.8 µM
GI50 (SK-MEL-28): 20 µM
CC50 (UO-31): 46.8 µM
CC50 (NCI-H23): 67.6 µM
CC50 (OVCAR-3 [3]): 53.7 µM
CC50 (HCT-15 [4]): 93.3 µM
CC50 (BT-549): 69.2 µM
TGI (MDA-MB-231): 36.3 µM
CC50 (OVCAR-5): 97.7 µM
CC50 (A498): 63.1 µM
GI50 (SK-MEL-5): 16.6 µM
CC50 (MOLT-4): 93.3 µM
TGI (SK-OV-3 [5]): 64.6 µM
TGI (HOP-92 [6]): 39.8 µM
CC50 (Malme-3M [7]): 69.2 µM
TGI (NCI-H46): 29.5 µM
CC50 (HCC 2998 [8]): 53.7 µM
GI50 (EKVX [9]): 20.4 µM
CC50 (MDA-N): 61.7 µM
GI50 (HCT-15 [10]): 12.3 µM
TGI (OVCAR-3 [11]): 28.2 µM
CC50 (CCRF-CEM): 95.5 µM
CC50 (Tumor Cell line): 97.7 µM
CC50 (LOX IMVI [12]): 60.3 µM
TGI (SN12C [13]): 32.4 µM
TGI (Homo sapiens): 44.7 µM
TGI (PC-3): 33.1 µM
CC50 (SNB-75): 66.1 µM
CC50 (NCI-H226): 64.6 µM
TGI (SF-268): 46.8 µM
TGI (Hs-578T): 91.2 µM
TGI (SK-MEL-2): 33.1 µM
TGI (SR [14]): 12 µM
CC50 (EKVX [15]): 97.7 µM
GI50 (MDA-MB-435): 17.4 µM
TGI (Malme-3M [16]): 37.2 µM
TGI (LOX IMVI [17]): 25.7 µM
CC50 (SNB-19 [18]): 72.4 µM
GI50 (HOP-62): 14.8 µM
GI50 (HOP-92 [19]): 15.1 µM
TGI (IGROV-1): 29.5 µM
CC50 (SN12C [20]): 63.1 µM
CC50 (SR [21]): 46.8 µM
GI50 (COLO 205): 17 µM
GI50 (SK-OV-3 [22]): 24.5 µM
TGI (SNB-19 [23]): 37.2 µM
CC50 (786-0): 53.7 µM
TGI (SW-620 [24]): 41.7 µM

Cc1ccc2cccc(NC(=O)c3cc4c(cc3Cl)Sc3nccn3S4(=O)=O)c2n1
TGI (A549 [1]): 25.7 µM
GI50 (HCC 2998 [2]): 1.82 µM
GI50 (SK-MEL-28): 9.55 µM
CC50 (OVCAR-3 [3]): 34.7 µM
TGI (MDA-MB-231): 24 µM
CC50 (OVCAR-5): 91.2 µM
GI50 (SK-MEL-5): 10.7 µM
TGI (SK-OV-3 [5]): 97.7 µM
TGI (HOP-92 [6]): 67.6 µM
CC50 (Malme-3M [7]): 64.6 µM
TGI (NCI-H46): 7.76 µM
CC50 (HCC 2998 [8]): 14.5 µM
GI50 (EKVX [9]): 17 µM
GI50 (HCT-15 [10]): 4.79 µM
TGI (OVCAR-3 [11]): 11.5 µM
CC50 (Tumor Cell line): 91.2 µM
CC50 (LOX IMVI [12]): 45.7 µM
CC50 (SW-620 [25]): 58.9 µM
TGI (Homo sapiens): 25.7 µM
CC50 (A549 [26]): 63.1 µM
TGI (PC-3): 10.5 µM
TGI (SK-MEL-2): 32.4 µM
TGI (SR [14]): 5.89 µM
CC50 (EKVX [15]): 77.6 µM
GI50 (MDA-MB-435): 7.94 µM
TGI (Malme-3M [16]): 33.1 µM
TGI (LOX IMVI [17]): 18.2 µM
GI50 (HOP-62): 0.049 µM
GI50 (HOP-92 [19]): 14.5 µM
TGI (IGROV-1): 6.92 µM
CC50 (SR [21]): 27.5 µM
GI50 (COLO 205): 17 µM
GI50 (SK-OV-3 [22]): 26.9 µM
CC50 (T47D): 38 µM
TGI (SNB-19 [23]): 33.9 µM
CC50 (786-0): 91.2 µM
TGI (SW-620 [24]): 23.4 µM
